Target: hCRTH2 receptor (Homo sapiens (Human), UniProt Q9Y5Y4)
Experiment: hCRTH2 receptor membranes radioligand (3H-PGD2) displacement assay
Format: binding
Settings: 3H-PGD2 radioligand displacement, HEK293-hCRTH2 membranes
Procedure, shortened: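 HEK293-hCRTH2 membranes, 20 μg/well; 3H-PGD2 added at 2.5 nM; binding buffer 50 mM Tris, 10 mM MnCl2, 1 mM EDTA, pH 7.0; 90 min RT; GF/C filtration, scintillation count. Nonspecific binding: PGD2 at […].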

Sequence of hCRTH2 receptor (Q9Y5Y4 whole entry): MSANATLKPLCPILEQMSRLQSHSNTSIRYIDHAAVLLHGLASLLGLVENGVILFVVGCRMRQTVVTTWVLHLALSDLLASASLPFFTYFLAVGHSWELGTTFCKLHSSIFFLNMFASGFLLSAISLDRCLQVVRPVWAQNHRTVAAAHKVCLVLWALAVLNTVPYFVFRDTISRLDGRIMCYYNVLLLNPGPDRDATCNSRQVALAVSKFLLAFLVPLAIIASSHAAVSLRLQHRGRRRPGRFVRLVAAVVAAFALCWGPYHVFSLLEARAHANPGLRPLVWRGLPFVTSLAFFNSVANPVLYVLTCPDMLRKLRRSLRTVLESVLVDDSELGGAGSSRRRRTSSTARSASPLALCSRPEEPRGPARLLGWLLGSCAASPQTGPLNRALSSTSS

Row | SMILES | IC50 [nM]
1 | O=C(O)Cc1ccc(F)c(-c2cccc3c2CN(C(=O)OCc2ccccc2)CC3)c1 [Example 23, 8-(5-Carboxymethyl-2-fluoro-phenyl)-3,4-dihydro-1H-isoquinoline-2-carboxylic acid benzyl ester] | 192
2 | O=C(O)Cc1cccc(-c2ccc(F)c3c2CN(C(=O)OCc2ccccc2)CC3)c1 [Example 24, 8-(3-Carboxymethyl-phenyl)-5-fluoro-3,4-dihydro-1H-isoquinoline-2-carboxylic acid benzyl ester] | 69.5
3 | COc1ccc(CC(=O)O)cc1-c1ccc(S(C)(=O)=O)c2c1CN(C(=O)OCc1ccccc1)CC2 [Example 25, 8-(5-Carboxymethyl-2-methoxy-phenyl)-5-methanesulfonyl-3,4-dihydro-1H-isoquinoline-2-carboxylic acid benzyl ester] | 149
4 | O=C(O)Cc1ccccc1-c1ccc(F)c2c1CN(C(=O)OCc1ccccc1)CC2 [Example 30, 8-(2-Carboxymethyl-phenyl)-5-fluoro-3,4-dihydro-1H-isoquinoline-2-carboxylic acid benzyl ester] | 875
5 | COc1ccc(CC(=O)O)cc1-c1c(F)ccc2c1CN(C(=O)OCc1ccccc1)CC2 [Example 33, 8-(5-Carboxymethyl-2-methoxy-phenyl)-7-fluoro-3,4-dihydro-1H-isoquinoline-2-carboxylic acid benzyl ester] | 113
6 | O=C(O)Cc1ccc(-c2ccc(F)c3c2CN(C(=O)OCc2ccccc2)CC3)cc1 [Example 41, 8-(4-Carboxymethyl-phenyl)-5-fluoro-3,4-dihydro-1H-isoquinoline-2-carboxylic acid benzyl ester] | 44.9
7 | COc1ccc(CC(=O)O)cc1-c1ccc(F)c2c1CN(C(=O)COc1ccccc1)CC2 [Example 43, {3-[5-Fluoro-2-(2-phenoxy-acetyl)-1,2,3,4-tetrahydro-isoquinolin-8-yl]-4-methoxy-phenyl}-acetic acid] | 30.2
8 | COc1ccc(CC(=O)O)cc1-c1ccc(F)c2c1CN(C(=O)COc1ccc(F)cc1)CC2 [Example 44, (3-{5-Fluoro-2-[2-(4-fluoro-phenoxy)-acetyl]-1,2,3,4-tetrahydro-isoquinolin-8-yl}-4-methoxy-phenyl)-acetic acid] | 59.1
9 | CCOCC(=O)N1CCc2c(F)ccc(-c3cc(CC(=O)O)ccc3OC)c2C1 [Example 46, {3-[2-(2-Ethoxy-acetyl)-5-fluoro-1,2,3,4-tetrahydro-isoquinolin-8-yl]-4-methoxy-phenyl}-acetic acid] | 774
10 | COc1ccc(CC(=O)O)cc1-c1ccc(F)c2c1CN(C(=O)COC(C)(C)C)CC2 [Example 47, {3-[2-(2-tert-Butoxy-acetyl)-5-fluoro-1,2,3,4-tetrahydro-isoquinolin-8-yl]-4-methoxy-phenyl}-acetic acid] | 551
11 | COc1ccc2onc(CC(=O)N3CCc4c(F)ccc(-c5cc(CC(=O)O)ccc5OC)c4C3)c2c1 [Example 49, (3-{5-Fluoro-2-[2-(5-methoxy-benzo[d]isoxazol-3-yl)-acetyl]-1,2,3,4-tetrahydro-isoquinolin-8-yl}-4-methoxy-phenyl)-acetic acid] | 54
12 | COc1ccc(CC(=O)O)cc1-c1ccc(F)c2c1CN(C(=O)C1C(C)(C)C1(C)C)CC2 [Example 50, {3-[5-Fluoro-2-(2,2,3,3-tetramethyl-cyclopropanecarbonyl)-1,2,3,4-tetrahydro-isoquinolin-8-yl]-4-methoxy-phenyl}-acetic acid] | 267
13 | COc1ccc(CC(=O)O)cc1-c1ccc(F)c2c1CN(C(=O)CCc1cccnc1)CC2 [Example 51, {3-[5-Fluoro-2-(3-pyridin-3-yl-propionyl)-1,2,3,4-tetrahydro-isoquinolin-8-yl]-4-methoxy-phenyl}-acetic acid] | 57.1
14 | COc1ccc(CC(=O)O)cc1-c1ccc(F)c2c1CN(C(=O)C1CC1)CC2 [Example 52, [3-(2-Cyclopropanecarbonyl-5-fluoro-1,2,3,4-tetrahydro-isoquinolin-8-yl)-4-methoxy-phenyl]-acetic acid] | 68.9
15 | COc1ccc(CC(=O)O)cc1-c1ccc(F)c2c1CN(C(=O)CCc1ccccc1C)CC2 [Example 56, {3-[5-Fluoro-2-(3-o-tolyl-propionyl)-1,2,3,4-tetrahydro-isoquinolin-8-yl]-4-methoxy-phenyl}-acetic acid] | 42.1
16 | COc1ccc(CC(=O)O)cc1-c1ccc(Cl)c2c1CN(C(=O)CCn1ncc3ccccc31)CC2 [Example 72, {3-[5-Chloro-2-(3-indazol-1-yl-propionyl)-1,2,3,4-tetrahydro-isoquinolin-8-yl]-4-methoxy-phenyl}-acetic acid] | 37.8
17 | COc1ccc(CC(=O)O)cc1-c1ccc(Cl)c2c1CN(C(=O)COCc1ccccc1Cl)CC2 [Example 73, (3-{5-Chloro-2-[2-(2-chloro-benzyloxy)-acetyl]-1,2,3,4-tetrahydro-isoquinolin-8-yl}-4-methoxy-phenyl)-acetic acid] | 30.2

The remaining compounds from weak to strong by IC50, led by results:

Row | IC50 [nM] | SMILES
18 | 29.5 | COc1ccc2[nH]cc(CCC(=O)N3CCc4c(F)ccc(-c5cc(CC(=O)O)ccc5OC)c4C3)c2c1 [Example 63, (3-{5-Fluoro-2-[3-(5-methoxy-1H-indol-3-yl)-propionyl]-1,2,3,4-tetrahydro-isoquinolin-8-yl}-4-methoxy-phenyl)-acetic acid]
19 | 29.1 | O=C(O)Cc1ccc(-c2ccc(F)c3c2CN(C(=O)OCc2ccccc2)CC3)cc1Cl [Example 40, 8-(4-Carboxymethyl-3-chloro-phenyl)-5-fluoro-3,4-dihydro-1H-isoquinoline-2-carboxylic acid benzyl ester]
20 | 21.6 | COc1ccc(CC(=O)O)cc1-c1ccc(F)c2c1CN(C(=O)CCn1ncc3ccccc31)CC2 [Example 67, {3-[5-Fluoro-2-(3-indazol-1-yl-propionyl)-1,2,3,4-tetrahydro-isoquinolin-8-yl]-4-methoxy-phenyl}-acetic acid]
21 | 20.2 | O=C(O)Cc1cc(Cl)cc(-c2ccc(F)c3c2CN(C(=O)OCc2ccccc2)CC3)c1 [Example 19, 8-(3-Carboxymethyl-5-chloro-phenyl)-5-fluoro-3,4-dihydro-1H-isoquinoline-2-carboxylic acid benzyl ester]
22 | 16.3 | CS(=O)(=O)c1ccc(CC(=O)O)cc1-c1ccc(F)c2c1CN(C(=O)OCc1ccccc1)CC2 [Example 20, 8-(5-Carboxymethyl-2-methanesulfonyl-phenyl)-5-fluoro-3,4-dihydro-1H-isoquinoline-2-carboxylic acid benzyl ester]
23 | 16.2 | COc1ccc(CC(=O)O)cc1-c1ccc(F)c2c1CN(C(=O)CCn1cc(C)c3ccccc31)CC2 [Example 57, (3-{5-Fluoro-2-[3-(3-methyl-indol-1-yl)-propionyl]-1,2,3,4-tetrahydro-isoquinolin-8-yl}-4-methoxy-phenyl)-acetic acid]
24 | 12.9 | CC(C)Oc1ccc(CC(=O)O)cc1-c1ccc(F)c2c1CN(C(=O)[C@@H]1C[C@H]1c1ccccc1)CC2 [Example 27, {3-[5-Fluoro-2-((1R,2R)-2-phenyl-cyclopropanecarbonyl)-1,2,3,4-tetrahydro-isoquinolin-8-yl]-4-isopropoxy-phenyl}-acetic acid]
25 | 11.2 | COc1ccc(CC(=O)O)cc1-c1c(F)cc(F)c2c1CN(C(=O)[C@@H]1C[C@H]1c1ccccc1)CC2 [Example 38, {3-[5,7-Difluoro-2-((1R,2R)-2-phenyl-cyclopropanecarbonyl)-1,2,3,4-tetrahydro-isoquinolin-8-yl]-4-methoxy-phenyl}-acetic acid]
26 | 4.49 | COc1ccc(CC(=O)O)cc1-c1ccc(F)c2c1CN(C(=O)CCN1CCCc3ccccc31)CC2 [Example 53, {3-[2-(3-3,4-Dihydro-2H-quinolin-1-yl-propionyl)-5-fluoro-1,2,3,4-tetrahydro-isoquinolin-8-yl]-4-methoxy-phenyl}-acetic acid]
27 | 3.75 | COc1ccc(CC(=O)O)cc1-c1ccc(Cl)c2c1CN(C(=O)[C@@H]1C[C@H]1c1ccc(Cl)cc1)CC2 [Example 68, (3-{5-Chloro-2-[(1R,2R)-2-(4-chloro-phenyl)-cyclopropanecarbonyl]-1,2,3,4-tetrahydro-isoquinolin-8-yl}-4-methoxy-phenyl)-acetic acid]
28 | 3.19 | COc1ccc(CC(=O)O)cc1-c1c(F)ccc2c1CN(C(=O)[C@@H]1C[C@H]1c1ccccc1)CC2 [Example 35, {3-[7-Fluoro-2-((1R,2R)-2-phenyl-cyclopropanecarbonyl)-1,2,3,4-tetrahydro-isoquinolin-8-yl]-4-methoxy-phenyl}-acetic acid]
29 | 3.07 | O=C(O)Cc1ccc(OC(F)(F)F)c(-c2ccc(F)c3c2CN(C(=O)[C@@H]2C[C@H]2c2ccccc2)CC3)c1 [Example 26, {3-[5-Fluoro-2-((1R,2R)-2-phenyl-cyclopropanecarbonyl)-1,2,3,4-tetrahydro-isoquinolin-8-yl]-4-trifluoromethoxy-phenyl}-acetic acid]
30 | 1.77 | COc1ccc(CC(=O)O)cc1-c1ccc(F)c2c1CN(C(=O)[C@@H]1C[C@H]1c1ccccc1F)CC2 [Example 66, (3-{5-Fluoro-2-[(1R,2R)-2-(2-fluoro-phenyl)-cyclopropanecarbonyl]-1,2,3,4-tetrahydro-isoquinolin-8-yl}-4-methoxy-phenyl)-acetic acid]
31 | 1.16 | COc1ccc(CC(=O)O)cc1-c1ccc(Cl)c2c1CN(C(=O)[C@@H]1C[C@H]1c1ccccc1F)CC2 [Example 70, (3-{5-Chloro-2-[(1R,2R)-2-(2-fluoro-phenyl)-cyclopropanecarbonyl]-1,2,3,4-tetrahydro-isoquinolin-8-yl}-4-methoxy-phenyl)-acetic acid]
32 | 1.12 | COc1ccc(CC(=O)O)cc1-c1ccc(F)c2c1CN(C(=O)[C@@H]1C[C@H]1c1ccc(Cl)cc1)CC2 [Example 64, (3-{2-[(1R,2R)-2-(4-Chloro-phenyl)-cyclopropanecarbonyl]-5-fluoro-1,2,3,4-tetrahydro-isoquinolin-8-yl}-4-methoxy-phenyl)-acetic acid]
